The record followed here is ChEMBL document CHEMBL1159356, “Cytotoxic styrylpyrones from Goniothalamus amuyon” (J Nat Prod, 2003).

Converted amounts (≈) assume the structure as drawn. Numbered stars: 1 amine (or outer) side, 2 acyl side, 3 side chain; on linkers, the order of the positions; unused ones are H or OH. Bridge positions count the residues as written; N and C are the ends. Square brackets hold non-standard residues; d marks the D form. Peptide text beside a SMILES is read from it. I, II: the chains in the order shown. Actinocin(1to9) = Cc1c2oc3c(C)ccc(C(=O)[*:2])c3nc-2c(C(=O)[*:1])c(N)c1=O; NMeV = CN[C@H](C(=O)O)C(C)C; Sar = CNCC(=O)O

Assay [1] is described as follows: Cytotoxicity against human HONE1 cells. The format is functional, cell-based.
The next assay concerns NUGC. The experiment in a line: Cytotoxicity against human NUGC cells. It is filed as functional, cell-based.

The term IC50 denotes the point on the concentration scale where inhibition reaches its midpoint. A lower IC50 goes with higher potency. For `CC(=O)O[C@H]([C@H](O)c1ccccc1)[C@H]1CC=CC(=O)O1`, the figures for the IC50 (in assay [1]; with NUGC) were 5.69 µg/mL (≈ 20.6 µM) and 4.12 µg/mL (≈ 14.9 µM), respectively.
In the same order, the values of `CC(=O)O[C@H](c1ccccc1)[C@H](O)[C@H]1CC=CC(=O)O1` are 6.09 µg/mL (≈ 22 µM) and 5.02 µg/mL (≈ 18.2 µM).
In the same order, the values of `O=C1C=CC[C@H]([C@@H](O)[C@H](Cl)c2ccccc2)O1` [6R,7R,8R-8-CHLOROGONIODIOL] are 4.87 µg/mL (≈ 19.3 µM) and 31 µg/mL (≈ 123 µM).
In the same order, the values of `CO[C@H](c1ccccc1)[C@H](O)[C@H]1CC=CC(=O)O1` [6R,7R,8R-8-METHOXYGONIODIOL] are 240 µg/mL (≈ 965 µM) and 168 µg/mL (≈ 675 µM).
In the case of `Cc1c2oc3c(C)ccc(C(=O)N[C@@H]4C(=O)N[C@H](C(C)C)C(=O)N5CCC[C@H]5C(=O)N(C)CC(=O)N(C)[C@@H](C(C)C)C(=O)O[C@@H]4C)c3nc-2c(C(=O)N[C@@H]2C(=O)N[C@H](C(C)C)C(=O)N3CCC[C@H]3C(=O)N(C)CC(=O)N(C)[C@@H](C(C)C)C(=O)O[C@@H]2C)c(N)c1=O` [DACTINOMYCIN] (I: T[dV]P[Sar][NMeV] / II: T[dV]P[Sar][NMeV]; ester I:1-I:C, II:1-II:C; linker I:N-II:N via Actinocin(1to9)), the IC50 amounted to 4.53 µg/mL (≈ 3.61 µM) in assay [1] and 6.61 µg/mL (≈ 5.27 µM) in the assay on NUGC.
In the same order, the values of `O=C1C=CC[C@H]([C@@H]2O[C@H]2c2ccccc2)O1` [GONIOTHALAMIN EPOXIDE] are 36.3 µg/mL (≈ 168 µM) and 32.1 µg/mL (≈ 148 µM).
